Test results taken from patent publication US20200158718A1, “A METHOD FOR PREDICTING TIME-TO-VIRAL CLEARANCE IN PATIENTS WITH CHRONIC HEPATITIS C VIRUS (HCV) INFECTION UNDER DIRECT ACTING ANTIVIRAL (DAA) THERAPY” (priority 2017, published 2020).
Where “and” joins values, the source holds several entries; their conditions need not be identical. Identical values can stand only once.

What was measured:
Assay type in all cases: in vivo, human
[1] = system: ALT, alanine aminotransferase; test: Observational trial (training set): ALT level of chronic HCV patients under DAA therapy; settings: one line per patient (Table 3); for ALT level EOT: end of treatment; for ALT level wk 4: week 4 of therapy; for ALT level SVR12: week 12 after end of treatment
Experimental: (§1) Peripheral blood samples were provided by patients with chronic HCV infection, who were participating in an observational trial (clinicaltrials.gov: NCT02904603) authorized by the local ethics committee. For a training trial, 23 patients (genotype 1a (n=10), 1b (n=9) and 3 (n=4)) were treated with daclatasvir plus sofosbuvir (DCV/SOF; n=15), ledipasvir plus sofosbuvir (LDV/SOF; n=4) or with ritonavir-boosted paritaprevir, ombitasvir, and dasabuvir (n=4).
(§2) A sustained virological response to DAA therapy is generally achieved in 85-99% of chronic HCV patients, depending upon viral genotype, patient-related factors and the choice of treatment regime. In the present study of 23 patients with chronic HCV infection, 22 had achieved a sustained virological response at 12 weeks post-treatment (SVR12). Clearance of virus was associated with improved liver function and reduction in systemic markers of liver inflammation. Although most patients achieved sustained virological responses by 12 weeks, there was considerable variation in time to HCV RNA negativity and normalization of biochemical parameters. Baseline mean HCV RNA titer was 6.12±0.12 log 10 IU/ml, falling to 1.2±0.14 log 10 IU/ml by 4 weeks, at which time 12/23 patients were HCV RNA <12 IU/ml. HCV establishes persistent infections during which virus-specific CD4+ and CD8+ T cells become impaired through progressive functional exhaustion or clonal deletion, and intrahepatic NK cell responses are subdued. […] In particular, this study aimed to identify a minimal set of immunological markers that accurately classified patients with chronic HCV infections as “fast responders” (i.e. HCV RNA <12 IU/ml by 4 weeks) or “slow responders” (i.e. HCV RNA >12 IU/ml at 4 weeks, irrespective of later outcome). These biomarkers were to be independent of viral genotype, baseline fibrosis score, previous HCV treatment, and other patient-related factors. Therefore, the influence of the ALT levels, of the HCV genotype, of a previous treatment for chronic HCV, and the pre-treatment fibrosis score were also analyzed.

[2] = system: hepatitis C virus (HCV); test: Observational trial (training set): HCV-RNA / virological response of chronic HCV patients under DAA therapy; settings: for Response to DAA Therapy: one line per patient (Table 1, patients 1-23), SVR12 = undetectable HCV-RNA at week 12 after end of treatment, relapse = undetectable at EOT but detectable during follow-up, patients 5, 9 treated 24 weeks, patients 18, 23 treated 8 weeks; for HCV-RNA EOT / HCV-RNA wk 4 / HCV-RNA SVR12: one line per patient (Table 3); for HCV-RNA EOT: end of treatment; for HCV-RNA wk 4: week 4 of therapy; for HCV-RNA SVR12: week 12 after end of treatment
Experimental: The expression “time-to-viral clearance” indicates the period until no HCV RNA detection with currently available detection methods, e.g. as measured by PCR, particularly by quantitative real-time PCR in peripheral blood samples, e.g. in samples of at least 5 ml EDTA blood or whole blood is possible. Using a standard PCR-based test, fewer than 12 copies per milliliter blood is considered to be clinically clear of HCV (Table 3).
as §1, §2

[3] = system: hepatitis C virus (HCV); test: Prospective set: HCV-RNA at week 4 of DAA therapy in a further 10 chronic HCV patients; settings: one line per patient (Table 5, prospective set)
Source text: To verify that the model accurately predicted fast and slow responses, data were collected from a further 10 chronic HCV patients prior to DAA treatment (Table 5). In this “prospective set”, 8 patients were slow responders and 2 were fast responders: all slow responders were correctly classified as such (Table 2D). The model also correctly identified 1 of 2 fast responders. […] For the purpose of prospectively and safely shortening DAA therapy, a test with high specificity is more important than one with high sensitivity.
To verify that the herein disclosed model accurately predicts fast and slow responses, data were collected from a further 10 chronic HCV patients prior to DAA treatment (cf. the Table 5 below).

Substance | ALT level EOT [1] | ALT level wk 4 [1] | ALT level SVR12 [1] | Response to DAA Therapy [2] | HCV-RNA EOT [2] | HCV-RNA wk 4 [2] | HCV-RNA SVR12 [2] | Response to DAA Therapy wk 4 [3]
ritonavir-boosted paritaprevir, ombitasvir, and dasabuvir [3D] | 21 U/L and 15 U/L and 23 U/L | 24 U/L and 17 U/L and 19 U/L | 24 U/L and 21 U/L | SVR12 | neg. | neg | neg. | 
daclatasvir plus sofosbuvir [SOF + DCV] | 44 U/L and 46 U/L and 24 U/L and 45 U/L and 61 U/L and 42 U/L and 30 U/L and 70 U/L and 17 U/L and 23 U/L (2×) and 47 U/L and 22 U/L and 19 U/L and 31 U/L | 38 U/L and 42 U/L and 27 U/L and 51 U/L and 47 U/L and 34 U/L (2×) and 25 U/L and 62 U/L and 22 U/L and 31 U/L and 28 U/L and 29 U/L and 24 U/L and 23 U/L | 31 U/L and 35 U/L and 21 U/L (3×) and 41 U/L and 37 U/L and 43 U/L and 24 U/L and 62 U/L and 17 U/L and 107 U/L and 25 U/L and 23 U/L and 42 U/L |  | neg. (7×) and <12 IU/ml (8×) | <12 IU/ml (4×) and neg | neg. | 30 IU/ml
ledipasvir plus sofosbuvir [SOF + LDV] | 31 U/L and 64 U/L and 23 U/L and 24 U/L | 31 U/L and 74 U/L and 22 U/L and 24 U/L | 27 U/L and 32 U/L and 21 U/L and 10 U/L | SVR12 | neg. | <12 IU/ml | neg. | 61 IU/ml and <12 IU/ml (2×) and 51 IU/ml and 12 IU/ml (2×) and 14 IU/ml
